According to paper PMC6917776, “Discovery of a chemical probe for PRDM9” (Nature Communications, 2019):
Where “and” joins values, the source holds several entries; their conditions need not be identical. Identical values can stand only once.

System: H3K4me3 at known PRDM9 binding loci and control TSS loci
Experiment: ChIP-qPCR of H3K4me3 in PRDM9-transfected HEK293T cells
Assay type: cell-based, human
Details: Antibody H3K4me3; for 2^-dCq / dCq (IP-Input) / Cq: Figure 7 Replicate 2; for 2^-dCq (H3K4me3 IP relative to H3 IP): ChIP-qPCR Replicate 1; for Cq: ChIP-qPCR single well; for 2^-dCq (H3K4me3 ChIP relative to H3 ChIP): Replicate 1
Description: ChIP-qPCR assays were then conducted on known PRDM9 binding loci[26]. Ectopic expression of PRDM9^WT increased trimethylation of H3K4 (H3K4me3) at previously described PRDM9-specific intragenic and intergenic regions[26] (Fig. 7; Supplementary Fig. 12). […] The observed increases in H3K4me3 levels at intragenic and intergenic regions are therefore due directly to PRDM9 PR domain-dependent methylation activity, rather than through recruitment of other H3K4 methyltransferases or other indirect mechanisms.
ChIP qPCR analyses of H3K4me3 methylation levels of known PRDM9-bound loci and control loci. […] Concentrations used (µM) are indicated below each plot. (a–d) represent reported loci of PRDM9 methylation; (e, f) are transcriptional start sites (TSSs) which are not known loci of PRDM9 methylation. Data are normalized to total H3 and are presented as the mean ± upper and lower limits from two replicates. Representative plots of two independent experiments are shown in this figure. The coordinates and the genomic features associated with the assayed loci are indicated above each plot. Left Tailed Student's t-tests were performed by comparing DMSO (0 µM) treated cells to compound treated cells that have been transfected with the same plasmids. *p-value < 0.05 and **p-value < 0.01. Note that here we show a representative of two independent experiments (mean ± s.d of technical replicates) for our ChIP-qPCR experiments. Data obtained using this technique are inherently noisy due to stochastic differences in gene activity/histone positioning. Data are thus typically presented as representative rather than averaged. Source data are provided as a Source Data file.
HEK293T cells were transfected with 37.5 μg empty pcDNA3.1(+) vector (Invitrogen), or the same vector expressing either wild-type PRDM9 (PRDM9^WT) or a catalytically dead PRDM9 mutant (PRDM9^Mut) and 75 μL of Lipofectamine 2000 (Invitrogen) in 6 mL of Opti-MEM (GIBCO) for 48 h. […] ChIP assays were then performed as previously described. Briefly, cells were fixed in 1% formaldehyde and the fixation reaction was quenched in a final concentration of 0.1 M glycine. Cell pellets were first lysed in LB1 (50 mM HEPES-KOH pH 7.5, 140 mM NaCl, 1 mM EDTA, 10% Glycerol, 0.5% Igepal, 0.25% TritonX), washed once in LB2 Buffer (10 mM Tris-HCl pH 8, 200 mM NaCl, 1 mM EDTA, 0.5 mM EGTA) and finally sonicated in LB3 buffer (10 mM Tris-HCl pH 8, 100 mM NaCl, 1 mM EDTA, 0.5 mM EGTA, 0.1% Sodium deoxycholate, 0.5% N-laurosylsarcosine) using a bioruptor (Diagenode). Thereafter, 50 μg of chromatin was subjected to ChIP using the following antibodies purchased from Abcam: α-H3K4me3 (1:200, ab8580, lot:GR3207339-1) and α-H3 (1:250, ab1791, lot:GR300978-4). After extensive washing in RIPA wash buffer (50 mM HEPES-KOH pH 7.6, 100 mM LiCl, 1 mM EDTA, 1% Igepal, 0.7% Sodium Deoxycholate), DNA was eluted from beads. The eluted DNA was treated with RNase A and Proteinase K and purified using the QIAGEN PCR purification kit. qPCR was then carried out targeting the indicated loci (Supplementary Table 3). Upper and lower limits were defined by |2^−(dCq±s) − 2^−(∆Cq)|, where s = √((Standard deviation of Input Cq)^2 + (Standard deviation of Target Cq)^2). […]
formation. ChIP qPCR analyses of H3K4me3 methylation levels at known PRDM9-bound and control loci. Cells transfected with empty vector (negative control) or vectors overexpressing either wild-type PRDM9 (PRDM9 WT) or catalytically dead PRDM9 (PRDM9 MUT) were […]
Panels a-d represent reported loci of […]
(1 picture or pasted object on this page, not shown here)
PRDM9 methylation; e-f are TSSs which are not known sites of PRDM9 methylation. Data are normalized to total H3 and are presented as the mean ± upper and lower limits from two […]

[1] = Plasmid PRDM9WT, Drug Conc. 2.5

COc1cc(OC)cc(-c2noc(N3CCN(C)C4(CCN(c5ccnc(C)c5)CC4)C3)n2)c1 [MRK-740]
2^-dCq [1]: 68.6717 | dCq (IP-Input) [1]: -6.102 | 2^-dCq (Plasmid PRDM9WT, Drug Conc. 5): 143.684 | dCq (IP-Input) (Plasmid PRDM9WT, Drug Conc. 5): -7.167 | 2^-dCq (Plasmid PRDM9WT, Drug Conc. 10): 36.5414 | dCq (IP-Input) (Plasmid PRDM9WT, Drug Conc. 10): -5.191 | 2^-dCq (H3K4me3 IP relative to H3 IP) (Figure 7 E chr12:6643945-6644023 TSS (GAPDH), Plasmid Empty Vector, Drug Conc. 2.5): 42.6349 | 2^-dCq (H3K4me3 IP relative to H3 IP) (Figure 7 E chr12:6643945-6644023 TSS (GAPDH), Plasmid Empty Vector, Drug Conc. 5): 95.4581 | 2^-dCq (H3K4me3 IP relative to H3 IP) (Figure 7 E chr12:6643945-6644023 TSS (GAPDH), Plasmid Empty Vector, Drug Conc. 10): 117.266 | 2^-dCq (H3K4me3 IP relative to H3 IP) (Figure 7 E chr12:6643945-6644023 TSS (GAPDH), Plasmid PRDM9WT, Drug Conc. 2.5): 25.3027 | 2^-dCq (H3K4me3 IP relative to H3 IP) (Figure 7 E chr12:6643945-6644023 TSS (GAPDH), Plasmid PRDM9WT, Drug Conc. 5): 32.9385 | 2^-dCq (H3K4me3 IP relative to H3 IP) (Figure 7 E chr12:6643945-6644023 TSS (GAPDH), Plasmid PRDM9WT, Drug Conc. 10): 45.6823 | 2^-dCq (H3K4me3 IP relative to H3 IP) (Figure 7 F chr19:8510167-8510261 TSS (HNRNPM), Plasmid Empty Vector, Drug Conc. 2.5): 71.0331 | 2^-dCq (H3K4me3 IP relative to H3 IP) (Figure 7 F chr19:8510167-8510261 TSS (HNRNPM), Plasmid Empty Vector, Drug Conc. 5): 77.1794 | 2^-dCq (H3K4me3 IP relative to H3 IP) (Figure 7 F chr19:8510167-8510261 TSS (HNRNPM), Plasmid Empty Vector, Drug Conc. 10): 127.571 | 2^-dCq (H3K4me3 IP relative to H3 IP) (Figure 7 F chr19:8510167-8510261 TSS (HNRNPM), Plasmid PRDM9WT, Drug Conc. 2.5): 23.4419 | 2^-dCq (H3K4me3 IP relative to H3 IP) (Figure 7 F chr19:8510167-8510261 TSS (HNRNPM), Plasmid PRDM9WT, Drug Conc. 5): 34.0456 | 2^-dCq (H3K4me3 IP relative to H3 IP) (Figure 7 F chr19:8510167-8510261 TSS (HNRNPM), Plasmid PRDM9WT, Drug Conc. 10): 45.2017 | Cq [1]: 20.9173 | Cq (Plasmid PRDM9WT, Drug Conc. 5): 20.8427 and 20.8648 | Cq (Plasmid PRDM9WT, Drug Conc. 10): 21.3604 and 21.0972 | 2^-dCq (H3K4me3 ChIP relative to H3 ChIP) (Figure 7 A, chr2:128811847-128811944 (Intergenic), Plasmid Empty Vector, Drug Conc. 2.5): 0.4418 | 2^-dCq (H3K4me3 ChIP relative to H3 ChIP) (Figure 7 A, chr2:128811847-128811944 (Intergenic), Plasmid Empty Vector, Drug Conc. 5): 0.3019 | 2^-dCq (H3K4me3 ChIP relative to H3 ChIP) (Figure 7 A, chr2:128811847-128811944 (Intergenic), Plasmid Empty Vector, Drug Conc. 10): 0.3892 | 2^-dCq (H3K4me3 ChIP relative to H3 ChIP) (Figure 7 A, chr2:128811847-128811944 (Intergenic), Plasmid PRDM9WT, Drug Conc. 2.5): 1.223 | 2^-dCq (H3K4me3 ChIP relative to H3 ChIP) (Figure 7 A, chr2:128811847-128811944 (Intergenic), Plasmid PRDM9WT, Drug Conc. 5): 0.9838 | 2^-dCq (H3K4me3 ChIP relative to H3 ChIP) (Figure 7 A, chr2:128811847-128811944 (Intergenic), Plasmid PRDM9WT, Drug Conc. 10): 1.179 | 2^-dCq (H3K4me3 ChIP relative to H3 ChIP) (Figure 7 B, chr8:49932778-49932856 (Intergenic), Plasmid Empty Vector, Drug Conc. 2.5): 0.3289 | 2^-dCq (H3K4me3 ChIP relative to H3 ChIP) (Figure 7 B, chr8:49932778-49932856 (Intergenic), Plasmid Empty Vector, Drug Conc. 5): 0.2554 | 2^-dCq (H3K4me3 ChIP relative to H3 ChIP) (Figure 7 B, chr8:49932778-49932856 (Intergenic), Plasmid Empty Vector, Drug Conc. 10): 0.5965 | 2^-dCq (H3K4me3 ChIP relative to H3 ChIP) (Figure 7 B, chr8:49932778-49932856 (Intergenic), Plasmid PRDM9WT, Drug Conc. 2.5): 4.659 | 2^-dCq (H3K4me3 ChIP relative to H3 ChIP) (Figure 7 B, chr8:49932778-49932856 (Intergenic), Plasmid PRDM9WT, Drug Conc. 5): 2.677 | 2^-dCq (H3K4me3 ChIP relative to H3 ChIP) (Figure 7 B, chr8:49932778-49932856 (Intergenic), Plasmid PRDM9WT, Drug Conc. 10): 2.675
